Measured values published in patent publication US20140314791A1, “METHODS OF TREATING CANCER” (DANA-FARBER CANCER INSTITUTE, INC., priority 2012, published 2014).

What was measured:
[1] = tested on: Lkb1-null versus Lkb1-wt cell lines; assay: Large-scale pooled shRNA library screening (murine 40K pool); type: cell-based, mouse
Lkb1-wt cells [2] = assay: Array-based viral infection and cell proliferation assay (validation), Lkb1-wt; parameters: species or system mouse; conditions: 5 days post infection, alamarBlue
Description: (§1) (C) Validation study. Relative viability of Lkb1-wt and Lkb1-null cells infected with 340 individual hairpins for 5 days. Genes of interest are highlighted by the colors indicated.
(§2) For array-based viral infection and assessment of proliferation, 2.5 μl virus was mixed with 250 cells in 100 μl medium containing 8 μg/ml polybrene per well in 96-well plates. The plates were spun at 2250 rpm/37° C. for 30 min. Immediately after spinning, supernatants were gently aspirated off and 100 μl fresh medium was added to each well of the 96-well plates. After 2 days incubation, medium was gently aspirated off and 100 fresh medium containing 3 μg/ml puromycin was added to each well of the 96-well plates. The plates were back to culture for additional 3 days and then the viable cells were monitored by alamarBlue (Invitrogen) assay according to manufacturer's instructions.
(§3) To identify Lkb1-null-selective essential genes, a synthetic lethal screen was performed using a pooled 40K murine shRNA lentiviral library for each of the Lkb1-wt and Lkb1-null cell lines described above. Relative abundance of shRNAs in each cell line sample was determined by deep-sequencing analysis, and for every shRNA, a log 2 Fold Change (log 2FC) value was calculated from the difference in relative abundance at a late time point after infection versus the initial shRNA-infected sample. An unsupervised hierarchical clustering analysis of the ranked hairpins from the triplicate pooled shRNA library screens of Lkb1-wt and Lkb1-null mouse cancer cells is shown in FIG. 1A. […] The ranked hairpins were collapsed by using two methods, a RIGER analysis (KS t-test based statistics) and a weighted second best analysis to rank genes that selectively impaired proliferation/viability in Lkb1-null cells. A union of 344 genes, identified by the top 100 individual hairpins for 88 genes (Table 1) and the top 200 genes from both the KS (Table 2) and weighted second best (Table 3), was nominated as the initial prioritized list (FIG. 1B). 340 shRNAs, targeting 70 candidate genes from this prioritized list, were chosen for validation (Table 4). The 70 genes consisted of the top 10 candidates from the KS analysis, as well as 60 others involved in a range of biological processes in an attempt to represent all biological categories in the validation process. Validation was performed in an array format with an assay of relatively short duration (5 days post infection) compared to the primary pooled screen (28 days), which should be a more stringent selection, as it required the anti-proliferative effects to manifest in a short time period. […] Dtymk, Check1, and Pdhb are the top 3 candidate genes, each with 3 hairpins that scored in the validation assay (FIG. 1C).

Lkb1-null cells = assay: Array-based viral infection and cell proliferation assay (validation), Lkb1-null; parameters: species or system mouse
Description: as §1, §2, §3

[3] = tested on: Lkb1-wt (634, 855, and 857) and Lkb1-null (t2, t4, and t5) cells; assay: Proliferation assay of shRNA-transduced cells (CellTiter-Glo); type: cell-based, mouse; conditions: in vitro, puromycin 3 μg/ml
Description: Viable cells were measured daily using Promega's CellTiter-Glo Assay. Two independent sets of transductions into the 6 cell lines were shown: the first set used shGFP, shDtymk-1, and shChek1-4 (upper panels), and the second set used shGFP, shDtymk-3, and shChek1-1 (lower panels).
Lentiviral production and target cell transduction were performed according to previously description (Moffat et al., 2006). Briefly, 293T cells were co-transfected with pLenti-vector, pCMV-dR8.74psPAX2, and pMD2.G using TransIT-LT1 transfection reagent (Mirus). Thirty-six h after transfection, the supernatant was harvested and spun at 3000 rpm/4° C. for 10 min, and then incubated with target cells in the presence of 8 μg/ml polybrene (Sigma) for 24 h. Two days after infection, the cells were collected for further analysis as indicated in the presence of 3 μg/ml Puromycin (Invitrogen).
Cells were plated into 96-well plates at 2000 cells per well in 100 μl, with addition of puromycin at 3 μg/ml for shRNA lentivirus infected cells, or with addition of variable doses of drug for drug treatment effects. Viable cells were measured daily or for a period of up to 3 days either by CellTiter-Glo Luminescent Cell Viability Assay (Promega) or by Cell Counting Kit-8 (CCK-8) (Dojindo) according to the manufacturer's instructions. All proliferation assays were performed in triplicate wells.
Depletion of DTYMK and CHEK1 was confirmed by Western blot (FIG. 11B).

[4] = tested on: Lkb1-null t2, t4, and t5 cells; assay: dTTP rescue of shDtymk growth phenotype; type: cell-based, mouse; conditions: without additional dTTP, 3 days
Description: (B) Morphology of Lkb1-null t2, t4, and t5 cells transduced with shGFP or shDtymk-1 and then cultured with or without additional 150 μM dTTP in medium for 3 days.
Next it was determined whether adding dTTP to the media could rescue cell death after Dtymk knockdown. Three Lkb1-null cell lines were transduced with shGFP or shDtymk-1 and then selectively cultured in puromycin medium in the presence or absence of 150 μM dTTP for 3 days (Taricani et al., 2010). […] Expression of DTYMK in the shDtymk-1 cells was not determined because the remaining cells were too few for RNA and protein extraction (FIG. 4B).

Lkb1-wt cells [5] = assay: IdU pulse-labeling after Dtymk knockdown, Lkb1-wt; type: cell-based, mouse; conditions: for proportion of cells labeled with IdU: mean
Description: (E) Lkb1-wt and Lkb1-null cells in 6-well plates were transduced with shDtymk-1 or shGFP. Two sets of the cells were plated into multiple chamber slides: one was 2 days and the other was 3 days post transduction. After overnight culturing, the cells were labeled with 100 μM IdU for 20 min then fixed for indirect immunofluorescence staining with anti-BrdU. The data represent mean±SD for 200˜300 cells. Representative merged images of BrdU (red) and DAPI (blue) in the indicated cells are shown (F).
The lower expression of DTYMK in Lkb1-null cells causes the cells to be in jeopardy of DNA damage. To investigate how further knockdown of Dtymk and the consequent decrease in the dTTP pool could affect DNA metabolism, IdU pulse-labeling in Lkb1-wt and Lkb1-null cells was performed 2.5 and 3.5 days post-transduction with shDtymk-1. […] The representative images of Lkb1-wt and Lkb1-null cells co-stained for IdU and DAPI are shown (FIG. 5F). In addition, an overall lower proportion of labeled Lkb1-null than Lkb1-wt cells (43.1% vs. 57.7%) was observed, which may be related to the lower dNTP levels in Lkb1-null cells.

Dtymk = assay: QPCR analysis of Dtymk knockdown in Lkb1-wt 634 cells; conditions: normalized to shGFP

shDtymk-1: shRNA hairpin CAAGCTTCTGAATTCCTACTT targeting Mouse Dtymk
Hairpin-rank in pooled shRNA screen ([1]; Table 6): 27050
NES ([1]; gene-level normalized enrichment score over all hairpins of the gene): 1.540
Gene rank ([1]; gene-level rank by NES): 91
# HP 500 ([1]; number of the gene's hairpins ranked within top 500): 1
# HP 1000 ([1]; number of the gene's hairpins ranked within top 1000): 1
# HP 5000 ([1]; number of the gene's hairpins ranked within top 5000): 1
# HP 10000 ([1]; number of the gene's hairpins ranked within top 10000): 2
WT ave-GR (Lkb1-wt cells [2]): 0.53
Growth of Lkb1-wt/Lkb1-null in array-based validation (Lkb1-null cells; Table 6): 4.16
Null ave-GR (Lkb1-null cells; validation, 5 days post infection, alamarBlue): 0.13
cell growth compared to shGFP control, Lkb1-null versus Lkb1-wt [3]: inhibition was stronger in Lkb1-null cells
growth of shDtymk-transduced Lkb1-null cells [4]: grew poorly
proportion of cells labeled with IdU (Lkb1-wt cells [5]; day 2.5 post infection): 46.3%
proportion of cells labeled with IdU (Lkb1-wt cells [5]; day 3.5 post infection): 22.3%
drop of proportion of IdU-labeled cells (Lkb1-wt cells [5]; in 3.5 days): 61.2%
mRNA remaining (by qPCR) (Dtymk): 20.00%
